Test results published in US10947252B2, “Inhibitors of KEAP1-Nrf2 protein-protein interaction” (Janssen Pharmaceutica NV, priority 2018, dated 2021).

Columns and labels:
[1] = biological target: Kelch domain of human KEAP1 (321-624 aa) (Homo sapiens (Human), UniProt Q14145); assay: KEAP1 KELCH ThermoFluor binding assay; settings: KEAP Kelch […], 1,8-ANS, pH 7.0, average of results obtained, read-out: Tf Kd;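 also: Ligand-induced melting temperature shift of E. coli-expressed KEAP1 Kelch protein, Kd estimated from concentration-response curves of ΔTm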
[2] = tested on: Glo-Response ARE-luc2P HEK293 cell line; assay: ARE luciferase reporter cell-based assay; settings: Homo sapiens, HEK293, 24 h, average of results obtained;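 also: luciferase signal tracks Nrf2 activation of the ARE once compounds disrupt KEAP1-Nrf2 binding, read with One-Glo reagent, DMSO serving as low control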

Chain of Kelch domain of human KEAP1 (321-624 aa) (Q14145 321-624): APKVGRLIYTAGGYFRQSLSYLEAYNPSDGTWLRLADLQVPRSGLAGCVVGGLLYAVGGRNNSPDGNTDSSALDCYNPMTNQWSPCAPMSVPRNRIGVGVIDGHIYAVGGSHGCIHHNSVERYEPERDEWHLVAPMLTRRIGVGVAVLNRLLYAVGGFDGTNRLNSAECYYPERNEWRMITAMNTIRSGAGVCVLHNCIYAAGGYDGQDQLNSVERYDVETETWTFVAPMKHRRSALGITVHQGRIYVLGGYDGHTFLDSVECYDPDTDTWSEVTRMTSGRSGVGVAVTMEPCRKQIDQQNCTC

Row | Structure (SMILES) | Kd [1] [nM] | EC50 [2] [nM]
1 | Cc1cnc([C@@H](c2ccn3c(C(F)F)nnc3c2C)C(C)(C)C(=O)O)cc1CN1CC2(CC2)Oc2nc(OCCN3CCCCC3)c(C)cc2S1(=O)=O (single isomer, unassigned) [Example 638, (*S)-3-(3-(Difluoromethyl)-8-methyl-[1,2,4]triazolo[4,3-a]pyridin-7-yl)-2,2-dimethyl-3-(5-methyl-4-((8′-methyl-1′,1′-dioxido-7′-(2-(piperidin-1-yl)ethoxy)spiro[cyclopropane-1,4′-pyrido[2,3-b][1,4,5]oxathiazepin]-2′(3′H)-yl)methyl)pyridin-2-yl)propanoic Acid] | < 1 | 20.1
2 | Cc1ncc([C@@H](c2ccc3c(nnn3C3CC3)c2C)C(C)(C)C(=O)O)cc1CN1CC2(COC2)Oc2ncccc2S1(=O)=O (single isomer, unassigned) [Example 613, (*R)-3-(1-Cyclopropyl-4-methyl-1H-benzo[d][1,2,3]triazol-5-yl)-3-(5-((1′,1′-dioxidospiro[oxetane-3,4′-pyrido[2,3-b][1,4,5]oxathiazepin]-2′(3′H)-yl)methyl)-6-methylpyridin-3-yl)-2,2-dimethylpropanoic Acid] | < 1 | 33.2
3 | Cc1cnc2c(c1)S(=O)(=O)N(Cc1nc([C@@H](c3ccn4c(C(F)F)nnc4c3C)C(C)(C)C(=O)O)ccc1C)CC1(CNC1)O2 (single isomer, unassigned) [Example 632, (*S)-3-(3-(Difluoromethyl)-8-methyl-[1,2,4]triazolo[4,3-a]pyridin-7-yl)-2,2-dimethyl-3-(5-methyl-6-((8′-methyl-1′,1′-dioxidospiro[azetidine-3,4′-pyrido[2,3-b][1,4,5]oxathiazepin]-2′(3′H)-yl)methyl)pyridin-2-yl)propanoic Acid] | 21200 | 18100
4 | Cc1ccc(C(CC(=O)O)c2ccn3c(C(F)(F)F)nnc3c2C)cc1CN1C[C@@H]2CN(C)CCN2c2ncccc2S1(=O)=O (mixture of isomers) [Example 177, (R/S)-3-(4-Methyl-3-(((*S)-9-methyl-5,5-dioxido-7,7a,8,9,10,11-hexahydro-6H-pyrazino[2,1-d]pyrido[2,3-f][1,2,5]thiadiazepin-6-yl)methyl)phenyl)-3-(8-methyl-3-(trifluoromethyl)-[1,2,4]triazolo[4,3-a]pyridin-7-yl)propanoic Acid] | 49 | 1390
5 | Cc1cnc2c(c1)S(=O)(=O)N(Cc1cc([C@@H](c3ccn4c(C(F)(F)F)nnc4c3C)C(C)(C)C(=O)O)ccc1C)CC1(CC1)O2 (single isomer, unassigned) [Example 314, (*S)-2,2-Dimethyl-3-(4-methyl-3-((8′-methyl-1′,1′-dioxidospiro[cyclopropane-1,4′-pyrido[2,3-b][1,4,5]oxathiazepin]-2′(3′H)-yl)methyl)phenyl)-3-(8-methyl-3-(trifluoromethyl)-[1,2,4]triazolo[4,3-a]pyridin-7-yl)propanoic Acid] | < 1 | 1
6 | CCn1nnc2c(C)c([C@@H](c3ccc(C)c(CN4CC5(CCOCC5)Oc5ncc(C)cc5S4(=O)=O)n3)C(C)(C)C(=O)O)ccc21 (single isomer, unassigned) [Example 558, (*R)-3-(1-Ethyl-4-methyl-1H-benzo[d][1,2,3]triazol-5-yl)-2,2-dimethyl-3-(5-methyl-6-((8′-methyl-1′,1′-dioxido-2,3,5,6-tetrahydrospiro[pyran-4,4′-pyrido[2,3-b][1,4,5]oxathiazepin]-2′(3′H)-yl)methyl)pyridin-2-yl)propanoic Acid] | 343 | 195
7 | Cc1ccc([C@H](CC(=O)O)c2ccc3c(nnn3C3CC3)c2C)cc1CN1C[C@@]2(C)CCCN2c2ncccc2S1(=O)=O (single isomer, unassigned) [Example 222, (*S)-3-(1-Cyclopropyl-4-methyl-1H-benzo[d][1,2,3]triazol-5-yl)-3-(4-methyl-3-(((*R)-7a-methyl-5,5-dioxido-7a,8,9,10-tetrahydropyrido[2,3-f]pyrrolo[2,1-d][1,2,5]thiadiazepin-6(7H)-yl)methyl)phenyl)propanoic Acid] | 14 | 350
8 | Cc1ccc([C@H](CC(=O)O)c2ccn3c(C(F)(F)F)nnc3c2C)nc1CN1C[C@@H]2CCCCN2c2ncc(F)cc2S1(=O)=O (single isomer, unassigned) [Example 498, (*R)-3-(6-(((*S)-3-Fluoro-5,5-dioxido-7,7a,8,9,10,11-hexahydro-6H-dipyrido[2,1-d:2′,3′-f][1,2,5]thiadiazepin-6-yl)methyl)-5-methylpyridin-2-yl)-3-(8-methyl-3-(trifluoromethyl)-[1,2,4]triazolo[4,3-a]pyridin-7-yl)propanoic Acid] | < 1 | 14.7
9 | Cc1ccc([C@H](c2ccn3c(C(F)F)nnc3c2C)C(C)(C)C(=O)O)nc1CN1CC2(CC2)Oc2nc(OCCN3CCCC3)c(C)cc2S1(=O)=O (single isomer, unassigned) [Example 359, (*R)-3-(3-(Difluoromethyl)-8-methyl-[1,2,4]triazolo[4,3-a]pyridin-7-yl)-2,2-dimethyl-3-(5-methyl-6-((8′-methyl-1′,1′-dioxido-7′-(2-(pyrrolidin-1-yl)ethoxy)spiro[cyclopropane-1,4′-pyrido[2,3-b][[,4,5]oxathiazepin]-2′(3′H)-yl)methyl)pyridin-2-yl)propanoic Acid] | < 1 | 1230
10 | Cc1ccc([C@@H](CC(N)=O)c2ccn3c(C(F)(F)F)nnc3c2C)cc1CN1C[C@@H]2CCCCN2c2ncccc2S1(=O)=O (single isomer, unassigned) [Example 549, (*R)-3-(3-(((*S)-5,5-Dioxido-7,7a,8,9,10,11-hexahydro-6H-dipyrido[2,1-d:2′,3′-f][1,2,5]thiadiazepin-6-yl)methyl)-4-methylphenyl)-3-(8-methyl-3-(trifluoromethyl)-[1,2,4]triazolo[4,3-a]pyridin-7-yl)propanamide] | 84600 | > 20000
11 | Cc1ccc([C@H](c2ccc3c(nnn3C3CC3)c2C)C(C)(C)C(=O)O)cc1CN1CC2(CCNCC2)Oc2ncccc2S1(=O)=O (single isomer, unassigned) [Example 647, (*R)-3-(1-Cyclopropyl-4-methyl-1H-benzo[d][1,2,3]triazol-5-yl)-3-(3-((1′,1′-dioxidospiro[piperidine-4,4′-pyrido[2,3-b][1,4,5]oxathiazepin]-2′(3′H)-yl)methyl)-4-methylphenyl)-2,2-dimethylpropanoic Acid] | < 1 | 11.6
12 | Cc1cnc2c(c1)S(=O)(=O)N(Cc1cc([C@H](c3ccn4c(C(F)(F)F)nnc4c3C)C(C)(C)C(=O)O)ccc1C)CC1(CCOCC1)O2 (single isomer, unassigned) [Example 19, (*R)-2,2-Dimethyl-3-(4-methyl-3-((8′-methyl-1′,1′-dioxido-2,3,5,6-tetrahydrospiro[pyran-4,4′-pyrido[2,3-b][1,4,5]oxathiazepin]-2′(3′H)-yl)methyl)phenyl)-3-(8-methyl-3-(trifluoromethyl)-[1,2,4]triazolo[4,3-a]pyridin-7-yl)propanoic Acid] | 1280 | 789
13 | Cc1cc2cc([C@H](CC(=O)O)c3ccc(C)c(CN4C[C@H]5CCCCN5c5ncccc5S4(=O)=O)c3)n(C)c2nn1 (single isomer, unassigned) [Example 445, (*R)-3-(3,7-Dimethyl-7H-pyrrolo[2,3-c]pyridazin-6-yl)-3-(3-(((*R)-5,5-dioxido-7,7a,8,9,10,11-hexahydro-6H-dipyrido[2,1-d:2′,3′-f][1,2,5]thiadiazepin-6-yl)methyl)-4-methylphenyl)propanoic Acid] | < 1 | 716
14 | Cc1cnc2c(c1)S(=O)(=O)N(Cc1cc([C@@H](c3ccn4c(C(F)(F)F)nnc4c3C)C(C)(C)C(=O)O)ccc1C)C[C@@]1(CCOC1)O2 (single isomer, unassigned) [Example 384, (*S)-2,2-Dimethyl-3-(4-methyl-3-(((*R)-8′-methyl-1′,1′-dioxido-4,5-dihydro-2H-spiro[furan-3,4′-pyrido[2,3-b][1,4,5]oxathiazepin]-2′(3′H)-yl)methyl)phenyl)-3-(8-methyl-3-(trifluoromethyl)-[1,2,4]triazolo[4,3-a]pyridin-7-yl)propanoic Acid] | 246 | 150
15 | Cc1ccc([C@H](CC(=O)O)c2ccn3c(C(F)F)nnc3c2C)cc1CN1C[C@@H]2CCCN2c2ncc(C#N)cc2S1(=O)=O (single isomer, unassigned) [Example 543, (*S)-3-(3-(((S)-3-Cyano-5,5-dioxido-7a,8,9,10-tetrahydropyrido[2,3-f]pyrrolo[2,1-d][1,2,5]thiadiazepin-6(7H)-yl)methyl)-4-methylphenyl)-3-(3-(difluoromethyl)-8-methyl-[1,2,4]triazolo[4,3-a]pyridin-7-yl)propanoic Acid] | < 1 | 42.9
16 | CCn1nnc2c(C)c([C@H](c3ccc(C)c(CN4CC5(CCOCC5)Oc5ncc(C)cc5S4(=O)=O)n3)C(C)(C)C(=O)O)ccc21 (single isomer, unassigned) [Example 557, (*S)-3-(1-Ethyl-4-methyl-1H-benzo[d][1,2,3]triazol-5-yl)-2,2-dimethyl-3-(5-methyl-6-((8′-methyl-1′,1′-dioxido-2,3,5,6-tetrahydrospiro[pyran-4,4′-pyrido[2,3-b][1,4,5]oxathiazepin]-2′(3′H)-yl)methyl)pyridin-2-yl)propanoic Acid] | < 1 | 0.56
17 | Cc1ccc([C@H](CC(=O)O)c2ccc3c(nnn3C3CC3)c2C)cc1CN1C[C@H]2CCCN2c2ncccc2S1(=O)=O (single isomer, unassigned) [Example 210, (*S)-3-(1-Cyclopropyl-4-methyl-1H-benzo[d][1,2,3]triazol-5-yl)-3-(3-(((R)-5,5-dioxido-7a,8,9,10-tetrahydropyrido[2,3-f]pyrrolo[2,1-d][1,2,5]thiadiazepin-6(7H)-yl)methyl)-4-methylphenyl)propanoic Acid] | < 1 | 7.7
